PMC5218480 (PLoS ONE, 2017)

System: MV-4-11 cells
Test: Gene expression microarray analysis (Affymetrix PrimeView) and GSEA
Format: cell-based, human
Parameters: RFU PODN (11730768_x_at) / Fold change /veh PODN (11730768_x_at) / RFU LINC00158 (11744669_a_at) / Fold change /veh LINC00158 (11744669_a_at) / RFU DUSP10 (11751237_a_at) / Fold change /veh DUSP10 (11751237_a_at) / RFU ID3 (11757404_x_at) / Fold change /veh ID3 (11757404_x_at) / RFU PLEKHG5 (11737974_s_at) / Fold change /veh PLEKHG5 (11737974_s_at) / RFU LRRC4B (11730491_at) / Fold change /veh LRRC4B (11730491_at) / RFU GIMAP4 (11747438_a_at) / Fold change /veh GIMAP4 (11747438_a_at) / RFU KRT8 (11758183_x_at) / Fold change /veh KRT8 (11758183_x_at) / RFU CNN1 (11734310_a_at) / Fold change /veh CNN1 (11734310_a_at) / RFU VPS37D (11726825_at) / Fold change /veh VPS37D (11726825_at) / RFU C10orf10 (11716522_x_at) / Fold change /veh C10orf10 (11716522_x_at) / RFU KIR2DL2 /// KIR2DL4 /// KIR2DL5A /// KIR2DL5B /// KIR2DS1 /// KIR2DS2 /// KIR2DS3 /// KIR2DS4 /// KIR3DL3 /// KIR3DL3 /// KIR3DS1 (11738374_at) / Fold change /veh KIR2DL2 /// KIR2DL4 /// KIR2DL5A /// KIR2DL5B /// KIR2DS1 /// KIR2DS2 /// KIR2DS3 /// KIR2DS4 /// KIR3DL3 /// KIR3DL3 /// KIR3DS1 (11738374_at) / RFU C1QL1 (11718748_at) / Fold change /veh C1QL1 (11718748_at) / RFU TMPRSS4 (11747572_a_at) / Fold change /veh TMPRSS4 (11747572_a_at) / RFU HAMP (11756126_x_at) / Fold change /veh HAMP (11756126_x_at) / RFU RNFT2 (11725882_a_at) / Fold change /veh RNFT2 (11725882_a_at) / RFU NR4A2 (11747474_a_at) / Fold change /veh NR4A2 (11747474_a_at) / RFU ABCC12 (11746883_a_at) / Fold change /veh ABCC12 (11746883_a_at) / RFU TMEM136 (11760407_x_at) / Fold change /veh TMEM136 (11760407_x_at) / RFU CLDN22 /// WWC2 (11732394_at) / Fold change /veh CLDN22 /// WWC2 (11732394_at) / RFU HLA-DPB1 (11760878_x_at) / Fold change /veh HLA-DPB1 (11760878_x_at) / RFU SPINT1 (11716480_a_at) / Fold change /veh SPINT1 (11716480_a_at) / RFU GAP43 (11754022_s_at) / Fold change /veh GAP43 (11754022_s_at) / RFU A4GNT (11735810_at) / Fold change /veh A4GNT (11735810_at) / RFU PRB3 (11715151_x_at) / Fold change /veh PRB3 (11715151_x_at) / RFU TUBB4B (11761932_at) / Fold change /veh TUBB4B (11761932_at) / RFU CAPN14 (11732068_a_at) / Fold change /veh CAPN14 (11732068_a_at) / RFU TMCC2 (11721928_a_at) / Fold change /veh TMCC2 (11721928_a_at) / RFU IRGQ (11745062_a_at) / Fold change /veh IRGQ (11745062_a_at) / RFU FAM174B (11720279_a_at) / Fold change /veh FAM174B (11720279_a_at) / RFU TMPRSS4 (11748680_a_at) / Fold change /veh TMPRSS4 (11748680_a_at) / RFU FAM212B (11763350_a_at) / Fold change /veh FAM212B (11763350_a_at) / RFU PLEKHG5 (11743358_a_at) / Fold change /veh PLEKHG5 (11743358_a_at) / RFU ZSCAN30 (11745921_a_at) / Fold change /veh ZSCAN30 (11745921_a_at) / RFU CMKLR1 (11741424_a_at) / Fold change /veh CMKLR1 (11741424_a_at) / RFU LOC101060620 /// MAPK8IP1 (11723275_at) / Fold change /veh LOC101060620 /// MAPK8IP1 (11723275_at) / RFU SPTSSB (11747773_x_at) / Fold change /veh SPTSSB (11747773_x_at) / RFU PRSS12 (11739890_at) / Fold change /veh PRSS12 (11739890_at) / RFU BIN1 (11741810_x_at) / Fold change /veh BIN1 (11741810_x_at) / RFU WNT11 (11732464_a_at) / Fold change /veh WNT11 (11732464_a_at) / RFU C10orf10 (11716521_a_at) / Fold change /veh C10orf10 (11716521_a_at) / RFU C5orf56 (11738089_at) / Fold change /veh C5orf56 (11738089_at) / RFU CYB561 (11721691_x_at) / Fold change /veh CYB561 (11721691_x_at) / RFU ANKRD19P (11752326_a_at) / Fold change /veh ANKRD19P (11752326_a_at) / RFU OR2T12 /// OR2T33 /// OR2T8 (11738714_s_at) / Fold change /veh OR2T12 /// OR2T33 /// OR2T8 (11738714_s_at) / RFU VCAN (11748164_a_at) / Fold change /veh VCAN (11748164_a_at) / RFU JSRP1 (11732532_at) / Fold change /veh JSRP1 (11732532_at) / RFU KRTAP10-11 (11738290_x_at) / Fold change /veh KRTAP10-11 (11738290_x_at) / RFU MYO3A (11730013_a_at) / Fold change /veh MYO3A (11730013_a_at) / RFU EBF3 (11725865_a_at) / Fold change /veh EBF3 (11725865_a_at) / RFU CAMK2N1 (11719241_x_at) / Fold change /veh CAMK2N1 (11719241_x_at) / RFU C5orf56 (11738088_a_at) / Fold change /veh C5orf56 (11738088_a_at) / RFU OLFML3 (11715873_a_at) / Fold change /veh OLFML3 (11715873_a_at) / RFU LOC100653217 /// NTM (11731650_a_at) / Fold change /veh LOC100653217 /// NTM (11731650_a_at) / RFU MAPK11 (11762145_a_at) / Fold change /veh MAPK11 (11762145_a_at) / RFU FIZ1 (11724087_x_at) / Fold change /veh FIZ1 (11724087_x_at) / RFU OASL (11726364_x_at) / Fold change /veh OASL (11726364_x_at) / RFU SOX15 (11748057_x_at) / Fold change /veh SOX15 (11748057_x_at) / RFU CD79A (11719716_a_at) / Fold change /veh CD79A (11719716_a_at) / RFU HIST1H1D (11736915_at) / Fold change /veh HIST1H1D (11736915_at) / RFU CASKIN2 (11723855_a_at) / Fold change /veh CASKIN2 (11723855_a_at) / RFU LOC730098 (11760151_x_at) / Fold change /veh LOC730098 (11760151_x_at) / RFU OR4N2 (11742367_at) / Fold change /veh OR4N2 (11742367_at) / RFU PRRT2 (11749266_a_at) / Fold change /veh PRRT2 (11749266_a_at) / RFU SNX32 (11753110_a_at) / Fold change /veh SNX32 (11753110_a_at) / RFU CDHR5 (11726645_a_at) / Fold change /veh CDHR5 (11726645_a_at) / RFU RCAN1 (11760418_a_at) / Fold change /veh RCAN1 (11760418_a_at) / RFU FAM167A (11723789_a_at) / Fold change /veh FAM167A (11723789_a_at) / RFU FAM26E (11764081_at) / Fold change /veh FAM26E (11764081_at) / RFU ISYNA1 (11749810_s_at) / Fold change /veh ISYNA1 (11749810_s_at) / RFU ACY1 (11761880_at) / Fold change /veh ACY1 (11761880_at) / RFU 11764098_at / Fold change /veh 11764098_at / RFU SAMD14 (11745864_x_at) / Fold change /veh SAMD14 (11745864_x_at) / RFU NPB (11741838_a_at) / Fold change /veh NPB (11741838_a_at) / RFU TMPRSS6 (11731388_a_at) / Fold change /veh TMPRSS6 (11731388_a_at) / RFU KRTAP10-2 (11738614_at) / Fold change /veh KRTAP10-2 (11738614_at) / RFU ARHGAP8 /// PRR5-ARHGAP8 (11727945_x_at) / Fold change /veh ARHGAP8 /// PRR5-ARHGAP8 (11727945_x_at) / RFU KRTAP5-7 /// NADSYN1 (11734609_at) / Fold change /veh KRTAP5-7 /// NADSYN1 (11734609_at) / RFU RASL12 (11751679_a_at) / Fold change /veh RASL12 (11751679_a_at) / RFU CDKN2B (11736163_a_at) / Fold change /veh CDKN2B (11736163_a_at) / RFU PRF1 (11729649_at) / Fold change /veh PRF1 (11729649_at) / RFU, ZNF638 /// ZNF638-IT1 / Fold change vs veh, ZNF638 /// ZNF638-IT1 / RFU, PANK3 / Fold change vs veh, PANK3 / RFU, SH3YL1 / Fold change vs veh, SH3YL1 / RFU, ZEB2 / Fold change vs veh, ZEB2 / RFU, NRIP1 / Fold change vs veh, NRIP1 / RFU, PTTG1IP / Fold change vs veh, PTTG1IP / RFU, CAPN2 / Fold change vs veh, CAPN2 / RFU, MED14 / Fold change vs veh, MED14 / RFU, SNORA58 / Fold change vs veh, SNORA58 / RFU, C1orf63 / Fold change vs veh, C1orf63 / RFU, LRRFIP1 / Fold change vs veh, LRRFIP1 / RFU, NDUFAF7 / Fold change vs veh, NDUFAF7 / RFU, SLC12A2 / Fold change vs veh, SLC12A2 / RFU, IBTK / Fold change vs veh, IBTK / RFU, ESF1 / Fold change vs veh, ESF1 / Fold change vs veh, TMEM50B / RFU, TAOK1 / Fold change vs veh, TAOK1 / RFU, ACBD3 / Fold change vs veh, ACBD3 / RFU, TMA16 / Fold change vs veh, TMA16 / RFU, RWDD3 / Fold change vs veh, RWDD3 / RFU, BCAT1 / Fold change vs veh, BCAT1 / RFU, EDEM3 / Fold change vs veh, EDEM3 / RFU, TMEM33 / Fold change vs veh, TMEM33 / RFU, WDR75 / Fold change vs veh, WDR75 / RFU, AHCTF1 / Fold change vs veh, AHCTF1 / RFU, TFRC / Fold change vs veh, TFRC / RFU, ZDHHC17 / Fold change vs veh, ZDHHC17 / RFU, NOM1 / Fold change vs veh, NOM1 / RFU, ARL8B / Fold change vs veh, ARL8B / RFU, ZBTB11 / Fold change vs veh, ZBTB11 / RFU, TAMM41 / Fold change vs veh, TAMM41 / RFU, KIAA1704 /// LOC100996395 / Fold change vs veh, KIAA1704 /// LOC100996395 / RFU, ING1 / Fold change vs veh, ING1 / RFU, TRMT61B / Fold change vs veh, TRMT61B / RFU, FUBP3 / Fold change vs veh, FUBP3 / RFU, TP53 / Fold change vs veh, TP53 / RFU, TNKS2 / Fold change vs veh, TNKS2 / RFU, ZFP14 / Fold change vs veh, ZFP14 / RFU, ACTR2 / Fold change vs veh, ACTR2 / RFU, PPP3R1 / Fold change vs veh, PPP3R1 / RFU, PIK3R1 / Fold change vs veh, PIK3R1 / RFU, HNRNPA1 / Fold change vs veh, HNRNPA1 / RFU, RNF170 / Fold change vs veh, RNF170 / RFU, ZNF28 / Fold change vs veh, ZNF28 / RFU, RNGTT / Fold change vs veh, RNGTT / RFU, OGT / Fold change vs veh, OGT / RFU, BRD1 / Fold change vs veh, BRD1 / RFU, MARS / Fold change vs veh, MARS / RFU, ZNF655 / Fold change vs veh, ZNF655 / RFU, FAHD1 / Fold change vs veh, FAHD1 / RFU, BDP1 / Fold change vs veh, BDP1 / RFU, LRRCC1 / Fold change vs veh, LRRCC1 / RFU, ARID1A / Fold change vs veh, ARID1A / RFU, ZNF146 / Fold change vs veh, ZNF146 / RFU, ZNF330 / Fold change vs veh, ZNF330 / RFU, GPN3 / Fold change vs veh, GPN3 / RFU, C9orf123 / Fold change vs veh, C9orf123 / RFU, N4BP2L2 / Fold change vs veh, N4BP2L2 / RFU, ARFIP1 / Fold change vs veh, ARFIP1 / RFU, FAM179B / Fold change vs veh, FAM179B / RFU, BCL10 / Fold change vs veh, BCL10 / RFU, UHRF1BP1L / Fold change vs veh, UHRF1BP1L / RFU, BET1 / Fold change vs veh, BET1 / RFU, CNOT2 / Fold change vs veh, CNOT2 / RFU, ZNF268 / Fold change vs veh, ZNF268 / Fold change vs veh, ZNF507 / RFU, DGCR2 / Fold change vs veh, DGCR2 / RFU, WDSUB1 / Fold change vs veh, WDSUB1 / Fold change vs veh, HSP90B1 /// MIR3652 / RFU, ADSS / Fold change vs veh, ADSS / RFU, GK / Fold change vs veh, GK / RFU, ZNF148 / Fold change vs veh, ZNF148 / RFU, TAF9 / Fold change vs veh, TAF9 / RFU, SLC1A5 / Fold change vs veh, SLC1A5 / RFU, SLMO2 / Fold change vs veh, SLMO2 / RFU, ABCC4 / Fold change vs veh, ABCC4 / RFU, LOC101060439 /// RAP1B / Fold change vs veh, LOC101060439 /// RAP1B / RFU, RFX7 / Fold change vs veh, RFX7 / RFU, GTPBP10 / Fold change vs veh, GTPBP10 / RFU, CNEP1R1 / Fold change vs veh, CNEP1R1 / RFU, BIVM-ERCC5 /// ERCC5 / Fold change vs veh, BIVM-ERCC5 /// ERCC5 / RFU, ILF3 / Fold change vs veh, ILF3 / RFU 11762660_at / Fold change /veh 11762660_at / RFU VCAN (11757783_s_at) / Fold change /veh VCAN (11757783_s_at) / RFU DDX43 (11728927_at) / Fold change /veh DDX43 (11728927_at) / RFU KRT8 (11758188_x_at) / Fold change /veh KRT8 (11758188_x_at) / RFU NKD1 (11759106_at) / Fold change /veh NKD1 (11759106_at) / RFU SRD5A1 (11742802_a_at) / Fold change /veh SRD5A1 (11742802_a_at) / RFU TPSAB1 /// TPSB2 (11721975_s_at) / Fold change /veh TPSAB1 /// TPSB2 (11721975_s_at) / RFU GSTM3 (11746129_a_at) / Fold change /veh GSTM3 (11746129_a_at) / RFU IL23R (11737362_x_at) / Fold change /veh IL23R (11737362_x_at) / RFU TMEM51 (11727254_a_at) / Fold change /veh TMEM51 (11727254_a_at) / RFU PIWIL2 (11732686_x_at) / Fold change /veh PIWIL2 (11732686_x_at) / RFU ORM1 (11744905_x_at) / Fold change /veh ORM1 (11744905_x_at) / RFU CCDC152 (11743942_at) / Fold change /veh CCDC152 (11743942_at) / RFU ECM1 (11717891_a_at) / Fold change /veh ECM1 (11717891_a_at) / RFU IL23R (11748794_a_at) / Fold change /veh IL23R (11748794_a_at) / RFU TNFAIP8L3 (11732012_x_at) / Fold change /veh TNFAIP8L3 (11732012_x_at) / RFU MBOAT4 (11741988_at) / Fold change /veh MBOAT4 (11741988_at) / RFU 11764193_at / Fold change /veh 11764193_at / RFU TMEM53 (11763286_at) / Fold change /veh TMEM53 (11763286_at) / RFU MAGEB2 (11727129_at) / Fold change /veh MAGEB2 (11727129_at) / RFU TMEM200A (11744735_a_at) / Fold change /veh TMEM200A (11744735_a_at) / RFU CCDC152 (11751479_a_at) / Fold change /veh CCDC152 (11751479_a_at) / RFU FAM211A (11726209_a_at) / Fold change /veh FAM211A (11726209_a_at) / RFU RGS16 (11746705_a_at) / Fold change /veh RGS16 (11746705_a_at) / RFU VCAN (11755009_s_at) / Fold change /veh VCAN (11755009_s_at) / RFU RHOB (11743442_s_at) / Fold change /veh RHOB (11743442_s_at) / RFU RGS16 (11720943_a_at) / Fold change /veh RGS16 (11720943_a_at) / RFU RGS16 (11720944_at) / Fold change /veh RGS16 (11720944_at) / RFU, VPS4B / Fold change vs veh, VPS4B / RFU, CREB1 / Fold change vs veh, CREB1 / RFU, DNAJC13 / Fold change vs veh, DNAJC13 / RFU, GNAQ / Fold change vs veh, GNAQ / RFU, CDK5R1 / Fold change vs veh, CDK5R1 / RFU, ZRANB3 / Fold change vs veh, ZRANB3 / RFU, CUL4A / Fold change vs veh, CUL4A / RFU, CCNY / Fold change vs veh, CCNY / RFU, UFL1 / Fold change vs veh, UFL1 / RFU, COG3 / Fold change vs veh, COG3 / RFU, DIAPH2 / Fold change vs veh, DIAPH2 / RFU, SKA2 / Fold change vs veh, SKA2 / RFU, AFF3 / Fold change vs veh, AFF3 / RFU, LMF1 / Fold change vs veh, LMF1 / RFU, IPO11 / Fold change vs veh, IPO11 / RFU, DFFB / Fold change vs veh, DFFB / RFU, FOXP1 / Fold change vs veh, FOXP1 / RFU, CARD8 / Fold change vs veh, CARD8 / RFU, STRN3 / Fold change vs veh, STRN3 / RFU, ADK / Fold change vs veh, ADK / RFU, RASSF2 / Fold change vs veh, RASSF2 / RFU, WIPF1 / Fold change vs veh, WIPF1 / RFU, LARP1B / Fold change vs veh, LARP1B / RFU, RASA1 / Fold change vs veh, RASA1 / RFU, RB1 / Fold change vs veh, RB1 / RFU, PPFIA1 / Fold change vs veh, PPFIA1 / RFU, MAT2A / Fold change vs veh, MAT2A / RFU, CCT5 / Fold change vs veh, CCT5 / RFU, WDR92 / Fold change vs veh, WDR92 / RFU, CUX1 / Fold change vs veh, CUX1 / RFU, TTC7A / Fold change vs veh, TTC7A / RFU, TMEM135 / Fold change vs veh, TMEM135 / RFU, DEPTOR / Fold change vs veh, DEPTOR / RFU, CPM / Fold change vs veh, CPM / RFU, DNAJB6 / Fold change vs veh, DNAJB6 / RFU, CACNA2D3 / Fold change vs veh, CACNA2D3 / RFU, DTX4 / Fold change vs veh, DTX4 / RFU, TFCP2 / Fold change vs veh, TFCP2 / RFU, GMCL1 /// GMCL1P1 / Fold change vs veh, GMCL1 /// GMCL1P1 / RFU, AEBP2 / Fold change vs veh, AEBP2 / RFU, SNHG1 /// SNORD22 /// SNORD25 /// SNORD26 /// SNORD27 /// SNORD28 /// SNORD29 /// SNORD31 / Fold change vs veh, SNHG1 /// SNORD22 /// SNORD25 /// SNORD26 /// SNORD27 /// SNORD28 /// SNORD29 /// SNORD31 / Fold change (Aza/veh), C12orf56 (ProbeSet 11735607_a_at) / Fold change (ACY-1035/veh), C12orf56 (ProbeSet 11735607_a_at) / Fold change (Aza/veh), FGFR1OP (ProbeSet 11751329_s_at) / Fold change (ACY-1035/veh), FGFR1OP (ProbeSet 11751329_s_at) / Fold change (Aza/veh), VPS36 (ProbeSet 11739960_a_at) / Fold change (ACY-1035/veh), VPS36 (ProbeSet 11739960_a_at) / RFU SYPL1 (11715823_x_at) / Fold change /veh SYPL1 (11715823_x_at) / RFU IGFBP7 (11715501_s_at) / Fold change /veh IGFBP7 (11715501_s_at) / RFU REEP3 (11722064_at) / Fold change /veh REEP3 (11722064_at) / RFU IGLL1 (11728026_x_at) / Fold change /veh IGLL1 (11728026_x_at): dose or concentration left out as unconfirmed
Settings: MV-4-11 cells, 48 hours

Nc1ccc(-c2cccs2)cc1NC(=O)c1ccc2c(c1)cc(C1CC1)n2CCN1CCOCC1 [ACY-1035]
RFU REEP3 (11722064_at): 19.86 RFU
